Test results reported in US11691960B2, “2-[thiophen-2-yl)formamido]-N-(phenyl)-2-methylpropanamide derivatives and the use thereof as medicament” (Boehringer Ingelheim International GmbH, priority 2020, dated 2023).

Key:
human androgen receptor = human androgen receptor (Homo sapiens (Human), UniProt P10275); assay: Assay B: human androgen receptor luciferase reporter assay (Indigo Biosciences); type: cell-based; conditions: for Selectivity Assay B/Assay A: ratio IC50 androgen receptor / IC50 IDO1
human androgen receptor, sequence (P10275 whole entry): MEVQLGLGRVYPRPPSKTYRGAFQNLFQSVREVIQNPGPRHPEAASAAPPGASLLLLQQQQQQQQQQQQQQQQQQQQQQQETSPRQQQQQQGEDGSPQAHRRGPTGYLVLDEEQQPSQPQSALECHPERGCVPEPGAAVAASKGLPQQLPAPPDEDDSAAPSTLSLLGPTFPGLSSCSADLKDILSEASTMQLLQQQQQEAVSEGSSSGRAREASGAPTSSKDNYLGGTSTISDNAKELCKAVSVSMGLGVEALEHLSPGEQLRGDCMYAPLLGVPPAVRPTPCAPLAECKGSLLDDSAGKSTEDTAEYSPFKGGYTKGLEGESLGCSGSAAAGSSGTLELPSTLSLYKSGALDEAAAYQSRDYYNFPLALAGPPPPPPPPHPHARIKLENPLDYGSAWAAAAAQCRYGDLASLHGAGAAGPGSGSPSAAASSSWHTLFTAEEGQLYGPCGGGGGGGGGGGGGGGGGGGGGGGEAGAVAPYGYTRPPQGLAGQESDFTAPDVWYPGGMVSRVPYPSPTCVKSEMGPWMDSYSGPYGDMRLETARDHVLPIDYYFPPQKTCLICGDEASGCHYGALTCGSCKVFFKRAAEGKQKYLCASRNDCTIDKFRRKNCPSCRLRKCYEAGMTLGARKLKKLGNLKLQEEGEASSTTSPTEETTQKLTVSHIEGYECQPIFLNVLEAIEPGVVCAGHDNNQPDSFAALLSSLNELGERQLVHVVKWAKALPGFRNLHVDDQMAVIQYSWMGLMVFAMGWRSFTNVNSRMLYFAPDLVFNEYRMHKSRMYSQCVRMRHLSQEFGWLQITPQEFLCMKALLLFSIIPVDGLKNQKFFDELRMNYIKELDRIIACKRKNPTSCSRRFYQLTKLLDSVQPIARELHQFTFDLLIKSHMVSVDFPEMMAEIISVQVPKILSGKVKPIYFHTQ
Text: Assay B. In Vitro Testing of Androgen Receptor Potency:
The human androgen receptor (AR) assay was run using Product #IB03001 from Indigo Biosciences. The cell line provided in this kit carries a reporter gene, induced upon AR stimulation. This reporter gene is cDNA encoding for beetle luciferase, a 62 kD protein originating from the North American firefly (Photinus pyralis). This luciferase catalyzes the mono-oxidation of D-luciferin yielding oxyluciferin, adenosine monophosphate, pyrophosphate, CO2, and photon emission. The luminescence intensity of the reaction is quantified using a luminometer.
To run the assay, the cells are thawed by adding pre-warmed cell recovery medium to each tube, then placed in a 37° C. water bath. 30000 viable cells in 200 μl are plated (collagen coated plates) and incubated at 37° C., ≥85% humidity, 5% CO2 for 24 hours. Media is replaced with compound screening medium. Cells are then challenged with 125 pM (EC80) 6a-Fl Testosterone and compounds are applied in half logarithmic dilutions from 10 μM to 10 nM. Assay plates are then incubated at 37° C., ≥85% humidity, 5% CO2 for 22-24 hours. Media is replaced with luciferase detection reagent and allowed 5 minutes to equilibrate prior to luminescence quantification.
Data Analysis consisted of calculating percentage of control between 100% (Negative control:6a-Fl Testosterone) and 0 (positive control: no 6a-FL Testosterone). Fitting of normalized values was made 4-Parameter sigmoidal binding curve (Log[conc]) vs. signal.

human hepatocytes = assay: Assay D: metabolic stability in human hepatocytes; type: in vitro ADME; conditions: for Hepatocyte stability Assay D: human hepatocytes, 1 μM, % of liver blood flow, mean +− standard deviation
Experimental: Assay D. Assessment of Metabolic Stability in Human Hepatocytes
The metabolic degradation of the test compound is assayed in a hepatocyte suspension. After recovery from cryopreservation, human hepatocytes are incubated in Dulbecco's modified eagle medium supplemented with 3.5 μg glucagon/500 mL, 2.5 mg insulin/500 mL and 3.75 mg/500 mL hydrocortisone) containing 5% or 50% human serum or in absence of serum.
Following a 30 min preincubation in a cell culture incubator (37° C., 10% CO2), 5 μl of test compound solution (80 μM; derived from a 2 mM DMSO stock solution by dilution 1:25 with medium) are added into 395 μl hepatocyte suspension, resulting in a final cell density of 1 Mio cells/mL, a final test compound concentration of 1 μM, and a final DMSO concentration of 0.05%.
The cells are incubated for six hours (incubator, orbital shaker) and samples (25 μl) are removed from the incubation after 0, 0.5, 1, 2, 4 and 6 hours. Samples are transferred into acetonitrile and pelleted by centrifugation (5 min). The supernatant is transferred to a new 96-deepwell plate, evaporated under nitrogen and resuspended prior to analysis of decline of parent compound by HPLC-MS/MS.
CLint is calculated as follows: CL_INTRINSIC=k/CD×1000/60 k: slope of the regression line for parent decline [h^−1], CD: cell density of vital cells [10e6 cells/mL],
The calculated in vitro hepatic intrinsic clearance is scaled up to the intrinsic in vivo hepatic Clearance and used to predict hepatic in vivo blood clearance (CL) by the use of a liver model (well stirred model): CL_INTRINSIC_INVIVO [ml/min/kg]=(CL_INTRINSIC [μL/min/10e6 cells]×hepatocellularity [10e6 cells/g liver]×liver factor [g/kg bodyweight])/1000 CL[ml/min/kg]=CL_INTRINSIC_INVIVO [ml/min/kg]×hepatic blood flow [ml/min/kg]/(CL_INTRINSIC_INVIVO[ml/min/kg]+hepatic blood flow [ml/min/kg])
Results are expressed as percentage of hepatic blood flow: QH[%]=CL[ml/min/kg]/hepatic blood flow [ml/min/kg])
Hepatocellularity, human: 120×10e6 cells/g liver
Liver factor, human: 25.7 g/kg bodyweight
Blood flow, human: 20.7 ml/(min×kg)

human Factor Xa = human Factor Xa (Homo sapiens (Human), UniProt P00742); assay: Assay C: human Factor Xa chromogenic substrate assay; type: biochemical; conditions: for IC50: human Factor Xa 0.86 nM, chromogenic substrate S2765; for Selectivity Assay C/Assay A: ratio IC50 Factor Xa / IC50 IDO1
human Factor Xa, sequence (P00742 235-488): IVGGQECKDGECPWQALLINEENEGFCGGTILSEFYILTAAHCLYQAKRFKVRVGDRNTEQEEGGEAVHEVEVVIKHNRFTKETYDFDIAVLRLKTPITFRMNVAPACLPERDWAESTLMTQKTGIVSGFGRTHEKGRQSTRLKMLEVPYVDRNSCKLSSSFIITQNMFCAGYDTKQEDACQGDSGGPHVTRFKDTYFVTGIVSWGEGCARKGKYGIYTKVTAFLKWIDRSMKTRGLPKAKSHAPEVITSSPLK
human Factor Xa, sequence (P00742 41-179 partner): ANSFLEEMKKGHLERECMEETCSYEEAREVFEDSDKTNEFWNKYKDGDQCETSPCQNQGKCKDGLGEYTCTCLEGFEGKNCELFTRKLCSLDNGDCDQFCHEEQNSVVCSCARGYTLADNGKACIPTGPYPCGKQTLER
Experimental: Assay C. In Vitro Testing of Human Factor Xa Potency:
Measurement of active human Factor Xa using a specific chromogenic substrate which is labeled with a p-nitro-anilino group (pNA). The cleavage in between the binding of the peptide substrate and the pNA-group is followed by a color change, which can be detected at 405 nm. The amount of cleaved substrate is directly proportional to the amount of active Xa.
[…] (100 U) human Factor Xa (Enzyme Research Laboratories; HFXa1011) were solved in 0.444 ml H2O (Millipore), which accords to a stock solution of 19.28 μM or 225 U/ml. Further dilutions were made in the assay buffer (Tris 100 mM, NaCL 150 mM, adjusted to a pH of 7.8 with HCL, containing 0.1% BSA and 0.05% Tween20). 25 mg (1 vial) of the chromogenic substrate S2765 (Chromogenix; S2765) was solved in 3.5 ml H2O (Millipore) to achieve a stock solution of 10 mM.
Compounds were solved and diluted in DMSO where the final dilution in the assay is 1:10 resulting in a final concentration of 1% DMSO.
• the prefinal dilution step was 1:10 in the assay buffer containing 11% DMSO resulting in 10% DMSO • final dilution in the assay is 1:10 resulting in a final concentration of 1% DMSO
Compounds were tested at final concentrations of 10 μM to 0.003 nM or lower. 5 μl human factor Xa (final concentration 0.86 nM), 2 μl compound dilution or assay buffer (containing 10% DMSO) and 8 μl assay buffer were pipetted in triplicates into a 384-well plate and incubated in the Thermomix at 24° C. for 10 minutes.
After addition of 5 μl chromogenic substrate (final concentration 0.5 mM) the enzyme-substrate reaction started and the kinetic measurement with the SpectraMax Monochromator was started within 1-2 minutes. • Parameter of measurement: (Spectra ax, Monochromator) • Absorbance; 1.LM 405 nM • Kinetic: 16 min each 2nd minute (9 times) • Negative Control (NC) 5 μl human factor Xa+10 μl assay buffer+5 μl Substrate • Positive Control (PC): 5 μl human factor Xa+2 μl Nafamostat (commercially available, final concentration: 1 μM)+8 μl assay buffer+5 μl Substrate • Blank (optional): 15 μl assay buffer+5 μl Substrate
Calculation of IC50, KI and the % effect at the highest concentration (Ratio)
For the calculation the average of the Vmax-values in between 120 sec to 720 sec were taken.
A x/y-Plot was created: x=log (M, Compound); y=vmax (drfu/min)
The data were analyzed with the curve fitting model: log (inhibitor) vs. response—Variable slope (four parameters)
The results of this fit were Top, Bottom, Log (IC50, M), Hillslope and IC50 (M)

CC(C)(NC(=O)c1cccs1)C(=O)Nc1ccc(C#N)c(C(F)(F)F)c1 [WO98/22432 example 53]
antiandrogenic activity (in words) (human androgen receptor): have antiandrogenic activity | Selectivity Assay B/Assay A (human androgen receptor): 0.7 | metabolic stability in human hepatocytes (in words) (human hepatocytes): very low metabolic stability

CC(C)(NC(=O)c1ccc(Br)s1)C(=O)Nc1ccc(Cl)c(F)c1 [Example 1, 2-[(5-bromothiophen-2-yl)formamido]-N-(4-chloro-3-fluorophenyl)-2-methylpropanamide]
Selectivity Assay B/Assay A (human androgen receptor): 43 | Hepatocyte stability Assay D (human hepatocytes): <4.1 % QH | IC50 (human Factor Xa): > 10 µM | Selectivity Assay C/Assay A (human Factor Xa): >57

CC(C)(NC(=O)c1ccc(Br)s1)C(=O)Nc1ccc(Br)cc1 [Example 2, 2-[(5-bromothiophen-2-yl)formamido]-N-(4-bromophenyl)-2-methylpropanamide]
IC50 (human androgen receptor; challenge with 125 pM (EC80) 6a-Fl Testosterone, mean +− standard deviation): > 10 µM | Selectivity Assay B/Assay A (human androgen receptor): >52 | Hepatocyte stability Assay D (human hepatocytes): <4.1 % QH | IC50 (human Factor Xa): > 10 µM | Selectivity Assay C/Assay A (human Factor Xa): >52

CC1CCC(C)N1c1ccc(NC(=O)C(C)(C)NC(=O)c2ccc(Cl)s2)cc1 (stereo not shown) [WO2005/111013 Ex. 22]
metabolic stability in human hepatocytes (in words) (human hepatocytes): medium metabolic stability | inhibition of the human Factor Xa enzyme (in words) (human Factor Xa): inhibits the human Factor Xa enzyme | IC50 (human Factor Xa): 0.429 µM | Selectivity Assay C/Assay A (human Factor Xa): 0.37

Cc1ccc(C(=O)NC(C)(C)C(=O)Nc2ccc(C#N)c(C(F)(F)F)c2)s1 [WO98/22432 example 86]
antiandrogenic activity (in words) (human androgen receptor): have antiandrogenic activity | Selectivity Assay B/Assay A (human androgen receptor): 4.9 | metabolic stability in human hepatocytes (in words) (human hepatocytes): very low metabolic stability
